These are literature values, as cited in patent US20100136096A1, “Systems for modulating inflammation” (Searete LLC, a limited liability corporation of the State …, priority 2008, published 2010).

The test system of data set [1] is Src family kinases (Src, Lck, Yes, Fyn). The following applies: at nanomolar concentrations.
A further data set deals with proteasomal activity. The following applies: cultured breast cancer cells; disulfiram bound to copper; Chen et al. 2006.
A further data set has as its system lethal septic shock. The following applies: mice; Nakamura et al. 2007.
For another data set, the system named is Src family kinase. Conditions: Sanjuan et al. 2006.
For data set [2] the following is noted: single agent, 400 mg infused over one hour; Looareesuwan et al. 1986.

SMILES strings stand for the structures.

For the molecule `Cc1nc(Nc2ncc(C(=O)Nc3c(C)cccc3Cl)s2)cc(N2CCN(CCO)CC2)n1.O` [dasatinib, N-(2-chloro-6-methylphenyl)-2-[[6-[4-(2-hydroxyethyl)-1-piperazinyl]-2-methyl-4-pyrimidinyl]amino]-5-thiazolecarboxamide, monohydrate], the “inhibition of Src family kinases (Src, Lck, Yes, Fyn)” value in data set [1] is reported as “inhibits”.
For `CCN(CC)C(=S)SSC(=S)N(CC)CC` [disulfiram, 1-(diethylthiocarbamoyldisulfanyl)-N,N-diethyl-methanethioamide], the proteasomal activity result in the data set with proteasomal activity is recorded as “inhibits proteasomal activity”. Further, the “inhibition of aldehyde dehydrogenase” value in the data set on aldehyde dehydrogenase was “inhibits aldehyde dehydrogenase without toxicity”.
For `Cl.Cl.Nc1ccccc1Oc1ccc2c(N)nsc2c1` [Example M62812, 3-amino-6-(2-aminophenoxy)-1,2-benzisothiazole dihydrochloride], in the data set on lethal septic shock, the “prevention of lethal septic shock” value is given as “prevents lethal septic shock”.
Consider `CCN(CC)CCCC(C)Nc1ccnc2cc(Cl)ccc12` (stereo not drawn) [Chloroquine], for which the “inhibition of CpG-induced Src family kinase activation, or its dependent cellular responses” value in the data set with Src family kinase is listed as “does not inhibit”.
With `CCN(CC)CCCC(C)Nc1ccnc2cc(Cl)ccc12.O=P(O)(O)O.O=P(O)(O)O` (stereo not drawn) [chloroquine phosphate, 7-chloro-4-[[4-(diethylamino)-1-methylbutyl]amino]quinoline phosphate (1:2)], the “tolerability of intravenous infusion” value in data set [2] was “without complication”.
